# Data published in patent US12128084B2, “Use of PAYCS in regulation of intestinal flora, metabolites, and brain neurotransmitters” (Sericulture and Agri-Food Research Institute, Guangdong …, priority 2022, dated 2024).
# Key:
# Assay type in all cases: in vivo
# [1] = system: mice with amnesia induced by scopolamine; assay: behavioral test (jumping test, swimming test; training part and test part) in scopolamine-induced amnesic mice
# Protocol: The mice were tested for a jumping test (FIG. 1A), swimming speed (FIG. 1), swimming distance (FIG. 1C), the number of crossings on the target platform (FIG. 1D), the number of crossings on the target quadrants (FIG. 1E), the escape latency and the error times (FIG. 1F) during the training. In the test part, the swimming distance, the swimming speed, number of crossings on target quadrant (FIG. 1G), the number of crossings on the target platform, and escape latency (H) were determined. In these figures, #: compared with the control group, P<0.05; compared with the control group, P<0.01; *: compared model group, P<0.05; **: compared with the model group, P<0.01.
# FIG. 7 is an experiment designed to evaluate the effect of PAYCS-L (lower dose of SEQ ID NO: 1) and PAYCS-H (higher dose of SEQ ID NO: 1) on learning and memory function in mice with amnesia induced by scopolamine.
# [2] = system: MDA, LDH, SOD, GP(x) in liver and serum; assay: liver and serum oxidation indexes of amnesic mice
# [3] = system: IL-1β and TNF-α in liver and serum; assay: liver and serum inflammatory indexes of amnesic mice
# intestinal microflora = assay: 16S rRNA analysis of intestinal microflora of amnesic mice
# From the text: The symbols * and ** represent P<0.05 and P<0.01, respectively.
# fecal metabolites = fecal metabolites of amnesic mice
# From the text: The scores of variable importance in projection (VIP) for symbol ** and symbol *** are P<0.05, P<0.01, and P<0.001 respectively.
# brain neurotransmitters = brain neurotransmitters of amnesic mice
# [4] = scopolamine-induced amnesic mice
# [5] = PAYCS-H (higher dose), scopolamine-induced amnesic mice
substance,measurement,setting,value
Pro-Ala-Tyr-Cys-Ser (PAYCS; sequence of the peptide ProAlaTyrCysSer),cognitive function in the test part of the behavioral test,"[1]; PAYCS-H (0.4 g/kg bw, higher dose), 3 weeks of treatment, scopolamine-induced mouse model",better improvement
same,memory enhancement in the training part of the behavioral test,"[1]; PAYCS-L (0.2 g/kg bw, lower dose), 3 weeks of treatment, scopolamine-induced mouse model",better effect of memory enhancement
same,memory deficits in amnesic mice,[1]; PAYCS-L (lower dose),partially reverses
same,scopolamine-induced memory impairment in mice,"[1]; mouse, in vivo",remedies
same,antioxidant effect,[2]; PAYCS-H (higher dose),good
same,oxidative stress in the liver and serum,[2]; PAYCS-H (higher dose),reverses
same,liver and serum deficits,"[2]; mouse, in vivo",positive effect
same,LDH level in serum,[2]; [4],significantly reduce
same,MDA level in serum,[2]; [4],significantly reduce
same,SOD content in the liver,[2]; [4],significantly increase
same,anti-inflammatory effect,[3]; PAYCS-H (higher dose),good
same,inflammatory stress in the liver and serum,[3]; PAYCS-H (higher dose),reverses
same,IL-1β in the liver,[3]; [5],inhibit the increase
same,TNF-α in the liver,[3]; [5],inhibit the increase
same,content of TNF-α in the liver,"[3]; PAYCS-L (lower dose), scopolamine-induced amnesic mice, only TNF-α",reduces
same,relative abundance of Cacteroidaceae,intestinal microflora; 16S rRNA analysis,increased
same,relative abundance of Prevotellaceae,intestinal microflora; 16S rRNA analysis,increased
same,intestinal microorganisms,intestinal microflora; PAYCS-H (higher dose),re-modulates
same,abundance of intestinal microorganism population in amnesic mice,intestinal microflora; PAYCS-L (lower dose),reconstitutes
same,ratio of Bacteroidetes/Firmicutes,"intestinal microflora; PAYCS-L (lower dose), 16S rRNA analysis",changed
same,fecal metabolites,fecal metabolites; PAYCS-H (higher dose),re-modulates
same,memory-related metabolites,fecal metabolites; e.g. Panax notoginseng saponins and cholinergic acid,significantly up-regulated
same,memory-related metabolites,"fecal metabolites; e.g. blumealactone C, thalictroidine, notoginsenoside M, 3a,7a,12b-trihydroxy-5b-cholanoic acid, sequiterpene lactone 326, helenalin, cholic acid",significantly up-regulated
same,fecal metabolites in amnesic mice,"fecal metabolites; mouse, in vivo",regulatory effect
same,neurotransmitters,"brain neurotransmitters; e.g. Ach, GABA, Glu, HisA, Kyn",significantly up-regulated
same,brain neurotransmitters in amnesic mice,"brain neurotransmitters; mouse, in vivo",regulatory effect
same,tryptophan metabolism-related neurotransmitters in the brain,"brain neurotransmitters; mouse, in vivo",improves
